Source: patent US12661342B2, “Heteroaryl compounds and therapeutic uses thereof in conditions associated with the alteration of the activity of beta-glucocerebrosidase” (GT GAIN THERAPEUTICS SA, priority 2019, dated 2026)

molecular target: T1, β-glucocerebrosidase (Homo sapiens, UniProt P04062, L483P); assay: Enhancement of β-glucocerebrosidase activity measured in Gaucher disease fibroblasts (4-MU-β-D-glucopyranoside substrate, intact cells); format: cell-based; set-up: key: Increase in comparison with non-treated of >2.0 fold is shown as A; Increase in comparison with non-treated of >1.7-2.0 fold is shown as B; Increase in comparison with non-treated of 1.2-1.7 fold is shown as C; D means that no increase compared with non-treated cells was detected in this method; details: GBA fibroblasts bearing L444P (GM08760A, homozygous p.L444P); compound at concentrations between 6 and 50 μM; 4 days incubation
T1 construct: host or cells: human Gaucher disease patient fibroblasts GM08760A
T1 sequence (P04062 40-536 L483P): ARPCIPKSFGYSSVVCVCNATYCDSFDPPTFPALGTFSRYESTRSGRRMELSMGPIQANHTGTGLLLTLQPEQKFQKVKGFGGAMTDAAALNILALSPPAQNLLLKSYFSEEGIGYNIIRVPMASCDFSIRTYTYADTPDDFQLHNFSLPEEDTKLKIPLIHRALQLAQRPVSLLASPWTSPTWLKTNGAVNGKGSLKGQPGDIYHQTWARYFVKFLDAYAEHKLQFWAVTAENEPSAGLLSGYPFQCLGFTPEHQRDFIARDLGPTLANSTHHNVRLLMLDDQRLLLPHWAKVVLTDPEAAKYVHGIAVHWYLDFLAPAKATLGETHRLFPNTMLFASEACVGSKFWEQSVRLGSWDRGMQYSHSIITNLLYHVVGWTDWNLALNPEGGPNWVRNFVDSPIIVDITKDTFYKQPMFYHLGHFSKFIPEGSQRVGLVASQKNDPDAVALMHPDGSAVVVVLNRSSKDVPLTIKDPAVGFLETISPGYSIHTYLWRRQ
Description: Human fibroblasts from a patient with Gaucher disease homozygous for p.L444P mutation (GM08760A) were purchased from Coriell Institute for Medical Research (Camden, NJ, USA).
Fibroblasts were seeded at 5×10^3 cells per well in 96-well cell culture plates (Corning, NY, USA) in Dulbecco's Modified Eagle's Media (DMEM) supplemented with 10% of fetal bovine serum (FBS), 1% penicillin/streptomycin (P/S) (Thermo Fisher Scientific, Waltham, MA, USA) and grown at 37° C., 5% CO2 overnight for cell attachment. Subsequently, cells were incubated in the absence or presence of the compounds at the desired concentration for 4 days. After incubation, cells were washed twice with phosphate-buffered saline (PBS) and enzyme activity assay was performed.
β-glucocerebrosidase activity in intact cultured cells was measured by using 4-methylumbelliferyl-β-D-glucopyranoside substrate (Apollo Scientific, UK). Briefly, cells were incubated with 4-MU-β-D-glucopyranoside in 0.1 M acetate buffer pH=4 at 37° C. for 1 hour. The reaction was stopped by adding 200 μL at 100 mM glycine-NaOH pH=10.7. The liberated 4-MU was measured on a GloMax Discover plate reader (Promega, Madison, WI, USA) with and excitation at 340 nm and emission at 460 nm. Enzyme activities were expressed in treated cells as X-fold increase in comparison with non-treated cells (X=1 represents no enhancement).
The capacity of the compounds of the disclosure to produce an increase in enzyme activity in GBA fibroblasts bearing L444P at concentrations between 6 and 50 μM is denoted as follows: • Increase in comparison with non-treated of >2.0 fold is shown as A • Increase in comparison with non-treated of >1.7-2.0 fold is shown as B • Increase in comparison with non-treated of 1.2-1.7 fold is shown as C • D means that no increase compared with non-treated cells was detected in this method • ND means “not determined”

| SMILES | Range: increase in enzyme activity in comparison with non-treated cells (Enzyme activity assay for compounds of Examples 33-141) |
| --- | --- |
| COc1ccccc1Nc1cc(N)nc(C(=O)N(C)c2ccccc2)c1 [Example 50, 6-Amino-4-((2-methoxyphenyl)amino)-N-methyl-N-phenylpicolinamide] | D |
| COc1ccccc1Nc1cc(N)nc(C(=O)N2CCN(c3ccccc3)CC2)c1 [Example 51, (6-Amino-4-((2-methoxyphenyl)amino)pyridin-2-yl)(4-phenylpiperazin-1-yl)methanone] | C (Increase in comparison with non-treated of 1.2-1.7 fold is shown as C) |
| COc1ccccc1Nc1cc(N)nc(C(=O)NC2CCc3ccccc3C2)c1 (stereo not drawn) [Example 52, 6-Amino-4-((2-methoxyphenyl)amino)-N-(1,2,3,4-tetrahydronaphthalen-2-yl)picolinamide] | B (Increase in comparison with non-treated of >1.7-2.0 fold is shown as B) |
| COc1ccccc1Nc1cc(N)nc(C(=O)Nc2ccccc2)c1 [Example 53, 6-Amino-4-((2-methoxyphenyl)amino)-N-phenylpicolinamide] | C (Increase in comparison with non-treated of 1.2-1.7 fold is shown as C) |
| COc1ccccc1Nc1cc(N)cc(C(=O)NC2Cc3ccccc3C2)n1 [Example 54, 4-Amino-N-(2,3-dihydro-1H-inden-2-yl)-6-((2-methoxyphenyl)amino)picolinamide] | C (Increase in comparison with non-treated of 1.2-1.7 fold is shown as C) |
| Nc1cc(Nc2ccccc2O)nc(C(=O)NC2Cc3ccccc3C2)n1 [Example 56, 4-Amino-N-(2,3-dihydro-1H-inden-2-yl)-6-((2-hydroxyphenyl)amino)pyrimidine-2-carboxamide] | B (Increase in comparison with non-treated of >1.7-2.0 fold is shown as B) |
| Nc1cc(Nc2ccccc2O)cc(C(=O)N2Cc3ccccc3C2)n1 [Example 58, (6-Amino-4-((2-hydroxyphenyl)amino)pyridin-2-yl)(isoindolin-2-yl)methanone] | B (Increase in comparison with non-treated of >1.7-2.0 fold is shown as B) |
| COc1ccccc1Nc1cc(N)nc(C(=O)N2Cc3ccccc3C2)c1 [Example 59, (6-Amino-4-((2-methoxyphenyl)amino)pyridin-2-yl)(isoindolin-2-yl)methanone] | C (Increase in comparison with non-treated of 1.2-1.7 fold is shown as C) |
| Nc1cc(Nc2ccccc2Cl)cc(C(=O)N2CCN(c3ccccc3)CC2)n1 [Example 60] | C (Increase in comparison with non-treated of 1.2-1.7 fold is shown as C) |
| Nc1cc(Nc2ccccc2O)cc(C(=O)N2CCN(c3ccccc3)CC2)n1 [Example 61, (6-Amino-4-((2-hydroxyphenyl)amino)pyridin-2-yl)(4-phenylpiperazin-1-yl)methanone] | C (Increase in comparison with non-treated of 1.2-1.7 fold is shown as C) |
| Nc1cc(Nc2ccccc2F)cc(C(=O)N2CCN(c3ccccc3)CC2)n1 [Example 62] | D |
| Nc1cc(Nc2ccccc2O)cc(C(=O)N2CCc3ccccc32)n1 [Example 64, (6-Amino-4-((2-hydroxyphenyl)amino)pyridin-2-yl)(indolin-1-yl)methanone] | C (Increase in comparison with non-treated of 1.2-1.7 fold is shown as C) |
| Nc1cc(Nc2ccccc2O)cc(C(=O)Nc2ccccc2)n1 [Example 65, 6-Amino-4-((2-hydroxyphenyl)amino)-N-phenylpicolinamide] | A (Increase in comparison with non-treated of >2.0 fold is shown as A) |
| Nc1cc(Nc2ccccc2O)cc(C(=O)NC2Cc3ccccc3C2)n1 [Example 67, 6-Amino-N-(2,3-dihydro-1H-inden-2-yl)-4-((2-hydroxyphenyl)amino)picolinamide] | B (Increase in comparison with non-treated of >1.7-2.0 fold is shown as B) |
| Cc1ccc(Nc2cc(N)nc(C(=O)NC3Cc4ccccc4C3)c2)c(O)c1 [Example 68, 6-Amino-N-(2,3-dihydro-1H-inden-2-yl)-4-((2-hydroxy-4-methylphenyl)amino)picolinamide] | C (Increase in comparison with non-treated of 1.2-1.7 fold is shown as C) |
| Nc1cc(Nc2ccc(F)cc2O)cc(C(=O)NC2Cc3ccccc3C2)n1 [Example 69, 6-Amino-N-(2,3-dihydro-1H-inden-2-yl)-4-((4-fluoro-2-hydroxyphenyl)amino)picolinamide] | B (Increase in comparison with non-treated of >1.7-2.0 fold is shown as B) |
| Nc1cc(Nc2ccccc2F)cc(C(=O)NC2Cc3ccccc3C2)n1 [Example 70, 6-Amino-N-(2,3-dihydro-1H-inden-2-yl)-4-((2-fluorophenyl)amino)picolinamide] | D |
| Nc1cc(Nc2ccccc2F)nc(C(=O)NC2Cc3ccccc3C2)c1 [Example 71, 4-Amino-N-(2,3-dihydro-1H-inden-2-yl)-6-((2-fluorophenyl)amino)picolinamide] | B (Increase in comparison with non-treated of >1.7-2.0 fold is shown as B) |
| Nc1cc(Nc2ccccc2Cl)cc(C(=O)NC2Cc3ccccc3C2)n1 [Example 72, 6-Amino-4-((2-chlorophenyl)amino)-N-(2,3-dihydro-1H-inden-2-yl)picolinamide] | D |
| Nc1cc(Nc2cccc3c2OCO3)cc(C(=O)Nc2ccccc2)n1 [Example 73, 6-Amino-4-(benzo[d][1,3]dioxol-4-ylamino)-N-phenylpicolinamide] | C (Increase in comparison with non-treated of 1.2-1.7 fold is shown as C) |
| Nc1cc(Nc2ccccc2F)cc(C(=O)Nc2ccccc2)n1 [Example 74, 6-Amino-4-((2-fluorophenyl)amino)-N-phenylpicolinamide] | C (Increase in comparison with non-treated of 1.2-1.7 fold is shown as C) |
| Nc1cc(Nc2ccccc2F)nc(C(=O)Nc2ccccc2)c1 [Example 75, 4-Amino-6-((2-fluorophenyl)amino)-N-phenylpicolinamide] | C (Increase in comparison with non-treated of 1.2-1.7 fold is shown as C) |
| COc1ccccc1Nc1cc(N)nc(C(=O)NC2Cc3ccccc3C2)c1 [Example 76, 6-Amino-N-(2,3-dihydro-1H-inden-2-yl)-4-((2-methoxyphenyl)amino)picolinamide] | D |
| Cc1ccc(Nc2cc(N)nc(C(=O)Nc3ccccc3)c2)c(O)c1 [Example 77, 6-Amino-4-((2-hydroxy-4-methylphenyl)amino)-N-phenylpicolinamide] | C (Increase in comparison with non-treated of 1.2-1.7 fold is shown as C) |
